ChEMBL document CHEMBL1201862, “PubChem BioAssay data set” (2004)
Activity calls are given as the source filed them.

Experiments:
[1] = mRNA 3' processing disruption, beta-gal signal increase – luminescence, S. cerevisiae SKY197-pL101, dose response (AID 2525); type: functional, cell-based
[2] = Luminescence Cell-Based Dose Confirmation HTS to Identify Inhibitors of Polyadenylation.; type: functional
Estrogen receptor = target: T1, Estrogen receptor (Homo sapiens, UniProt P03372);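 also: potency for inhibiting coactivator peptide recruitment to the receptor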
T1 sequence (P03372 whole entry): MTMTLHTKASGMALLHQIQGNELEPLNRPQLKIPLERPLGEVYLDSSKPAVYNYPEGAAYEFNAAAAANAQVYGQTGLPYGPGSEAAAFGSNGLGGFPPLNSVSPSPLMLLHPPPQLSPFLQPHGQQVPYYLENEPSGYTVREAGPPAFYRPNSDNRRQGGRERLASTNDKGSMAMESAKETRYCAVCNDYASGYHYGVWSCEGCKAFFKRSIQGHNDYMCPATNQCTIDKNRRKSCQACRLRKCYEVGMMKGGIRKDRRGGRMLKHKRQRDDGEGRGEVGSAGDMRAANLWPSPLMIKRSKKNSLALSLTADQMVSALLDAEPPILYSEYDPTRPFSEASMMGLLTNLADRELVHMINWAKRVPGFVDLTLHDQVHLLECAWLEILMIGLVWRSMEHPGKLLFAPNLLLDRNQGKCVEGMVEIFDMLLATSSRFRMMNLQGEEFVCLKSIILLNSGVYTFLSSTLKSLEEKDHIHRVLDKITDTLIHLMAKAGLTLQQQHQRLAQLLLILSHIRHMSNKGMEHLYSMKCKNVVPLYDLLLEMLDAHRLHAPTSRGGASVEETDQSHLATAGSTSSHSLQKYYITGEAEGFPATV

Estrogen receptor beta [3] = target: T2, Estrogen receptor beta (Homo sapiens, UniProt Q92731); test: blockers of SRC-3 recruitment to ERβ – biochemical, ELISA, streptavidin-HRP readout, orthogonal assay, confirmation (AID 1060)
T2 sequence (Q92731 whole entry): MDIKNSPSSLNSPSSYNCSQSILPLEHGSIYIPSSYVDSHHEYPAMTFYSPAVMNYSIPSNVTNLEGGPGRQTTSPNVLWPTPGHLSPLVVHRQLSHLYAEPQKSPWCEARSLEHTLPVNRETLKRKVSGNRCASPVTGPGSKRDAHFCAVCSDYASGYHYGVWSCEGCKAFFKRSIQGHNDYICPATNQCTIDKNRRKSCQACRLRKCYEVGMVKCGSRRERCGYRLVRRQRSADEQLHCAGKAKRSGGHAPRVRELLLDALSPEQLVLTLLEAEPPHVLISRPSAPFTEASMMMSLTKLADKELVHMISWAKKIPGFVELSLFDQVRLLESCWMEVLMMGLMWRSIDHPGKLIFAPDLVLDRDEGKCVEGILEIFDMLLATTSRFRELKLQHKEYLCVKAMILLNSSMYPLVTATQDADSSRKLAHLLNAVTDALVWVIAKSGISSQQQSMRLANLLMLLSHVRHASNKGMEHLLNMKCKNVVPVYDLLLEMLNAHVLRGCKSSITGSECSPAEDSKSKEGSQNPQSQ

Estrogen receptor beta [4] = target: T2, Estrogen receptor beta
Hexokinase HKDC1 = target: T3, Hexokinase HKDC1 (Homo sapiens, UniProt Q2TB90); test: inhibition of HKDC1 glucose phosphorylation – biochemical, W721R variant, dose response (AID 504729); type: functional
T3 sequence (Q2TB90 whole entry): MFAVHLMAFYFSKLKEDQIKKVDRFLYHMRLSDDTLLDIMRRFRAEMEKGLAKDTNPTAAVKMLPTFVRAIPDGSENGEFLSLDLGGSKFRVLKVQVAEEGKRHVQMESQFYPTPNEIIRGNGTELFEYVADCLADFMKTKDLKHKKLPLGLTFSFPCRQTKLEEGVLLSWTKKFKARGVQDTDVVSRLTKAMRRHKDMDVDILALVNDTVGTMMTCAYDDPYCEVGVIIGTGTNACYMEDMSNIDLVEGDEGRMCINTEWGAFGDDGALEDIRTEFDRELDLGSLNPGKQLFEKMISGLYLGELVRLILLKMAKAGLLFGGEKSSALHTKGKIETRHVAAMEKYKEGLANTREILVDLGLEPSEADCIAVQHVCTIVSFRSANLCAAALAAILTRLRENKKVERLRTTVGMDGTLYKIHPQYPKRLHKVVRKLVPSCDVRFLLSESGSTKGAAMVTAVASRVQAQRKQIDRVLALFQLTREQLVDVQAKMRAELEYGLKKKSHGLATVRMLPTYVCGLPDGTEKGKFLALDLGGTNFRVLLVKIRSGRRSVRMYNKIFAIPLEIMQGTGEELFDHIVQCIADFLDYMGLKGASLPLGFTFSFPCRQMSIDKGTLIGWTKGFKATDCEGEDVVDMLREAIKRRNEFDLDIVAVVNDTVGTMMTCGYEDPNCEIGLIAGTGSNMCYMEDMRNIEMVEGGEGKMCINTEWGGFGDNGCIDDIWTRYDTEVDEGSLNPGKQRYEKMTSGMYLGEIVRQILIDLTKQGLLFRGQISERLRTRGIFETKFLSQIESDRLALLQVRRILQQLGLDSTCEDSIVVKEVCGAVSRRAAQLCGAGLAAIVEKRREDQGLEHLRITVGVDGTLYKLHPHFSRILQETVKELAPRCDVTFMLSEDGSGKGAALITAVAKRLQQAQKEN

Bcl-2-like protein 10 = Bcl-2-like protein 10 (Homo sapiens, UniProt Q9HD36); test: Bcl-B/TR3 peptide binding disruption – biochemical, fluorescence polarization, FITC-TR3 peptide, selectivity assay for Bfl-1 inhibitor project, primary screen (AID 748);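 also: fluorescence polarization from a fluorescein-labelled TR3 peptide binding purified Bcl-B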
Bcl-2-like protein 10, sequence (Q9HD36 whole entry): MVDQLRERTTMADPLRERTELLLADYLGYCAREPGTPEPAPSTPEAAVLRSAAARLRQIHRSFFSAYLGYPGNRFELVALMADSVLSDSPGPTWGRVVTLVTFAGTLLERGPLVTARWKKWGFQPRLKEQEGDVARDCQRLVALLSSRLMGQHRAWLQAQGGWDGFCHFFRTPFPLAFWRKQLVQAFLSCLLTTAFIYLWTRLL

[5] = target: Transitional endoplasmic reticulum ATPase (Homo sapiens, UniProt P55072, C522A); test: C522A mutant p97 ATPase inhibitors, dose response, counter-screen for p97 inhibitor project, biochemical, luminescence (AID 1544)
Transitional endoplasmic reticulum ATPase (Homo sapiens, UniProt P55072, C522A), sequence (P55072 2-806 C522A limits assumed): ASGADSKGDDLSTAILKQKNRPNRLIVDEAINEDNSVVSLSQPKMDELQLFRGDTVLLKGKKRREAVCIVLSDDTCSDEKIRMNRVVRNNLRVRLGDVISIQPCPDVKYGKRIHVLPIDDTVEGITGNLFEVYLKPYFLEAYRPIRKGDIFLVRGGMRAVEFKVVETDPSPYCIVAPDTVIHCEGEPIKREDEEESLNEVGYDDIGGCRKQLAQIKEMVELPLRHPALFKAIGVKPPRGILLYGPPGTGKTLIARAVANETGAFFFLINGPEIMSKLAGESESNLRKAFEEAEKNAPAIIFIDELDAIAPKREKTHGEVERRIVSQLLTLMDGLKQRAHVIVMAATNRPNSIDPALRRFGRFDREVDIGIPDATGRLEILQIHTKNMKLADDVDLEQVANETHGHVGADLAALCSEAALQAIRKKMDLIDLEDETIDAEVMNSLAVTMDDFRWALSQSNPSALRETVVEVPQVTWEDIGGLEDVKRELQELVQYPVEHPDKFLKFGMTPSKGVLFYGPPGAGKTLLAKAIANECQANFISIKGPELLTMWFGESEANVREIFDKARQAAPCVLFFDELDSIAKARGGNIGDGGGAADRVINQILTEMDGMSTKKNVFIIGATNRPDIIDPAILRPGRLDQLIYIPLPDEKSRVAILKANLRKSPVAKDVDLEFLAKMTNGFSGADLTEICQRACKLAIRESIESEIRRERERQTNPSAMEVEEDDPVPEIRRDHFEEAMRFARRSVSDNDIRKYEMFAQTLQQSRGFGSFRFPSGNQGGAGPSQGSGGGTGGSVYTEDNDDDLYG

[6] = viability of uninfected HEp-2 cells – cell-based, HTS, cytotoxicity control for RSV inhibitor project, dose response (AID 2410); type: functional; conditions: human respiratory syncytial virus
[7] = target: T4, High affinity choline transporter 1 (Homo sapiens, UniProt Q9GZV3); test: human choline transporter blockers, potency – cell-based, 5-point CRC, membrane potential dye, dose response (AID 504840); type: functional
T4 sequence (Q9GZV3 whole entry): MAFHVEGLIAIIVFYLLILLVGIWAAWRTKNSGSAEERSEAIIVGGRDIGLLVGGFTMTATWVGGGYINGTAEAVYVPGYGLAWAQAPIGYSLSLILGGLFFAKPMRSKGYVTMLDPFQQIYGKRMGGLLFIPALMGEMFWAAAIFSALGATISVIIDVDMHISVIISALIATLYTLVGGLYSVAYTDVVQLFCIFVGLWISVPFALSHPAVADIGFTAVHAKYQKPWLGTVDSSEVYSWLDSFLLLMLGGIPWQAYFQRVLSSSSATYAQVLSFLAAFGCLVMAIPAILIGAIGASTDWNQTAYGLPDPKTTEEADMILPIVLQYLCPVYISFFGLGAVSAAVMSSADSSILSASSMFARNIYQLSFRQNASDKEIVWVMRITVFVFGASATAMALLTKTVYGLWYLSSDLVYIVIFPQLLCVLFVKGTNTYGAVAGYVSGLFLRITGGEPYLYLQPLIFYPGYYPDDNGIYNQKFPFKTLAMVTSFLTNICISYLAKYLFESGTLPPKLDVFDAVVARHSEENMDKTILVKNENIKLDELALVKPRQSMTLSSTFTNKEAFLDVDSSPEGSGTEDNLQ

[8] = target: T4, High affinity choline transporter 1; test: human choline transporter blockers, potency – cell-based, 10-point CRC, membrane potential dye, dose response (AID 588401); type: functional;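 also: membrane potential dye fluorescence of choline-evoked depolarization via CHT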
[9] = target: Transitional endoplasmic reticulum ATPase (Homo sapiens, UniProt P55072); test: p97 ATPase inhibitors, dose response, biochemical (AID 1534)
Transitional endoplasmic reticulum ATPase (Homo sapiens, UniProt P55072), sequence (P55072 whole entry): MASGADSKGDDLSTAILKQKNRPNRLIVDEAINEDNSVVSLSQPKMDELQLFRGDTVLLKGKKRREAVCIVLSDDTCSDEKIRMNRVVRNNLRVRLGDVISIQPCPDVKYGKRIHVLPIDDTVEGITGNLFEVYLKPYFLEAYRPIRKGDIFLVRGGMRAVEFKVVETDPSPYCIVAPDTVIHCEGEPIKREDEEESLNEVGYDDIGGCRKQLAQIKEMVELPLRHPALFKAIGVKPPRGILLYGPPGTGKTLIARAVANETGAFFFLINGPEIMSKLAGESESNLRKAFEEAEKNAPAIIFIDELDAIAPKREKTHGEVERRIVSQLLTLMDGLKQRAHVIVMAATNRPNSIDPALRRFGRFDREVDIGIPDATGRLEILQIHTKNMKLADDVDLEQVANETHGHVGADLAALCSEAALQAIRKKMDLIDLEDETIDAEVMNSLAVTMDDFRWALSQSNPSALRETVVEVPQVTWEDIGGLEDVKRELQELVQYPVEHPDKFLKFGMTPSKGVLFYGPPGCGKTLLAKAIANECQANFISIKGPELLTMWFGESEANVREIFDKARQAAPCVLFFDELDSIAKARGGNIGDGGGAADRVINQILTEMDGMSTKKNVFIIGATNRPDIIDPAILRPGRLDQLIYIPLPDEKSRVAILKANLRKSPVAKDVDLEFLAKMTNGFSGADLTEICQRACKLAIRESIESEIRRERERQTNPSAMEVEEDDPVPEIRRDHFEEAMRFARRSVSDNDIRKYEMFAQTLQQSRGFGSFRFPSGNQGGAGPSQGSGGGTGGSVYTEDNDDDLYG

[10] = target: T5, Eukaryotic translation initiation factor 2-alpha kinase 3 (Homo sapiens, UniProt Q9NZJ5); test: Counterscreen assay for PERK inhibitors: Dose response cell-based high throughput screening assay to measure inhibition of PERK at 6 hours. [Related pubchem assays: 1522, 1416 ]; type: functional
T5 sequence (Q9NZJ5 whole entry): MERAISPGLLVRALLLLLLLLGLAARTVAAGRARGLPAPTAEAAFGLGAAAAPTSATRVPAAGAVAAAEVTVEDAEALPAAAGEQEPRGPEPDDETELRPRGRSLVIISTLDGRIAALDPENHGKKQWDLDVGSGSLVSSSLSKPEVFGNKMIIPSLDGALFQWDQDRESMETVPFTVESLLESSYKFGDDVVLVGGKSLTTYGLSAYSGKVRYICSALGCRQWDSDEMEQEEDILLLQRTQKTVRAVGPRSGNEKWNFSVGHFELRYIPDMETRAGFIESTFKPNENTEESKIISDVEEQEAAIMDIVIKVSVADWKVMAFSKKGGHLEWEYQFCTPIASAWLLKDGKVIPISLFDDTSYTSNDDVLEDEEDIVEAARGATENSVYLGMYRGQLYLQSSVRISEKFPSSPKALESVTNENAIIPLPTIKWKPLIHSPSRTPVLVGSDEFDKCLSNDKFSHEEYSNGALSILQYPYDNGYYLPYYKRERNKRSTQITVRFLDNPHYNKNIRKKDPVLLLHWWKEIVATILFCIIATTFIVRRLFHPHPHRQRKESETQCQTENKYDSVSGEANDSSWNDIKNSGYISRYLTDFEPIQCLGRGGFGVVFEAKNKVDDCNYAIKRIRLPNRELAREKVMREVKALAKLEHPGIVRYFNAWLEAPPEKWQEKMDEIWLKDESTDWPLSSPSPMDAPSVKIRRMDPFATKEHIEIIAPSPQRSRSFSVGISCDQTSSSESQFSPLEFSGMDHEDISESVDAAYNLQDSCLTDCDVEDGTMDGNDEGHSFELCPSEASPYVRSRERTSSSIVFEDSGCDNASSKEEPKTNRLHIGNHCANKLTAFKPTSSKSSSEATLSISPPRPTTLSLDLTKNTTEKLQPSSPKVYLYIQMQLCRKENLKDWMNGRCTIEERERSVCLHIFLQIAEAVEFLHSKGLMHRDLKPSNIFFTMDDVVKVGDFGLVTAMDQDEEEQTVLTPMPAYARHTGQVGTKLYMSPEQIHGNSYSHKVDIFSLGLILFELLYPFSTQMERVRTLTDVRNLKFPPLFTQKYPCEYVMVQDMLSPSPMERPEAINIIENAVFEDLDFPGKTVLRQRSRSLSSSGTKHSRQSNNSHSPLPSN

[11] = target: T5, Eukaryotic translation initiation factor 2-alpha kinase 3; test: Dose response cell-based high-throughput screening assay to measure PERK inhibition. [Related pubchem assays: 1416 ]; type: functional
[12] = target: DNA dC->dU-editing enzyme APOBEC-3G (Homo sapiens, UniProt Q9HC16); test: Dose Response confirmation of small molecule APOBEC3G DNA Deaminase Inhibitors via a fluorescence-based single-stranded DNA deaminase assay. [Related pubchem assays (depositor defined):AID493012, AID493028]; type: functional
DNA dC->dU-editing enzyme APOBEC-3G, sequence (Q9HC16 whole entry): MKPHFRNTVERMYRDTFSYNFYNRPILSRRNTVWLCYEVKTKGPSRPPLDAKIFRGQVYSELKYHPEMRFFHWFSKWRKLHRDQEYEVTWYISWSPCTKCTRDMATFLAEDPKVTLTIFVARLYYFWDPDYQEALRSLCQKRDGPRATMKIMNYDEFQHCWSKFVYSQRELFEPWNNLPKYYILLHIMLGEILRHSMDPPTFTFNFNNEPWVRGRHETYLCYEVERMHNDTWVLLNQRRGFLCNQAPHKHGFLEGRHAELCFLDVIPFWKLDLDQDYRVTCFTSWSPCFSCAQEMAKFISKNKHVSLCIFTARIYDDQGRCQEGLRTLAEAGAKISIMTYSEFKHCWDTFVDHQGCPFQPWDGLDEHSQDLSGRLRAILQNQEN

[13] = target: DNA dC->dU-editing enzyme APOBEC-3A (Homo sapiens, UniProt P31941); test: A3A deaminase inhibition for selectivity – biochemical, dose response (AID 504722); type: functional
DNA dC->dU-editing enzyme APOBEC-3A, sequence (P31941 whole entry): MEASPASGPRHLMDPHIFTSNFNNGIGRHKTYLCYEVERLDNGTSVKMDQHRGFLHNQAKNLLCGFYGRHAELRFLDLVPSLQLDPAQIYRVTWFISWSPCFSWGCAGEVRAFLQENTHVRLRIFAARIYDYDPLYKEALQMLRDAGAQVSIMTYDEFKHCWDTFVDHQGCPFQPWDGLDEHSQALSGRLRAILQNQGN

[14] = A Cell Based Secondary Assay To Explore Cytotoxicity of Compounds that Sensitize Mycobacterium Tuberculosis to Beta-Lactam Antibiotics.; type: functional

Cc1ccc(Nc2c(-c3ccc(C)o3)nc3ncccn23)cc1
EC50 [1]: > 500 µM (not active) | EC50 [2]: 11.6 µM (active)

O=C(CSc1nnc(-c2ccc(OC(F)F)cc2)o1)NC(=O)NCc1ccco1
IC50 (Estrogen receptor): 11.6 µM (active) | IC50 (Estrogen receptor beta [3]): > 109 µM (not active) | IC50 (Estrogen receptor beta [4]): 15.9 µM (active)

CCc1nc2sc3c(O)ncnc3c2c2c1CSC(C)(C)C2
IC50 (Hexokinase HKDC1): 26 µM (inactive)

COc1ccc(NC(=O)C2CCN(c3nc(C)nc4c3CCC4)CC2)cc1
IC50 (Bcl-2-like protein 10): 33.8 µM (active)

CC(=O)Oc1cc2c3c(c1)/C(=C1/SC(=S)NC1=O)C(=O)N3C(C)(C)C=C2C
IC50 [5]: > 50 µM (not active) | CC50 [6]: 14.3 µM (active) | IC50 (cells): 12.5 µM (active) | IC50 [7]: 1.21 µM (active) | IC50 [8]: 6.48 µM (active) | IC50 [9]: > 50 µM (not active)

CC(=O)c1cc2c(cc1N)OCO2
EC50 [10]: > 55.7 µM (not active) | EC50 [11]: > 55.7 µM (not active)

COc1cccc(/C=N/n2c(S)nnc2-c2cc(C)[nH]n2)c1
IC50 [12]: 5.19 µM (active) | IC50 [13]: > 100 µM (inactive)

CCN(CC)c1ccc(NC(=O)c2cc(Cl)ccc2OC)cc1
CC50 [14]: > 40 µM (active)

COc1ccc(-c2csc(NC(=O)CSc3nc(C)cs3)n2)cc1
EC50 [10]: > 55.7 µM (not active) | EC50 [11]: > 55.7 µM (not active)

Cc1cccc(-n2nc([N+](=O)[O-])c(NC3CCN(Cc4ccccc4)CC3)[n+]2[O-])c1
CC50 [14]: > 40 µM (active)

Cc1ccc(-c2nn3c(C)nnc3s2)cc1NC(=O)CSc1ccc(Cl)cc1
EC50 [1]: 3.08 µM (active) | EC50 [2]: 24.7 µM (active)
